Data on two compounds can be found in US10633386B2, “BET protein degraders” (THE REGENTS OF THE UNIVERSITY OF MICHIGAN, priority 2016, dated 2020).

One assay has as its system BET proteins. Put plainly: PD analysis of BET proteins in WHIM24 tumors. In kind it is in vivo, mice. The note with it: single IV dose 10 mg/kg. As for the experimental part: Cpd. […] A at 50 mg/kg, daily, oral dosing, 5 days a week for 3 weeks. Cpd. […] Neither Cpd. A nor Cpd. No. 4 caused significant weight loss (data not shown) or apparent toxicity in this model. […] No. 4 (10 mg/kg) reduced the levels of BET proteins by >80% at as early as 1 h and this effect lasted for at least 9 h in WHIM24 tumors (data not shown). […] No. 4 treatment (data not shown). […] No. 4 is reversible once the drug is cleared from the tumor tissue.

The next assay deals with K61. Kind of assay: Cell growth inhibition (CellTiter-Glo), leukemia line K61. In kind it is cell-based. Here is the method: Cell growth inhibitory activity of representative BET bromodomain degraders in representative non-small cell lung cancer cell lines was determined using the CellTiter-Glo® Luminescent Cell Viability Assay. Cells were seeded in 384-well white opaque cell culture plates at a density of 2,000 cells/well with serially diluted compounds and incubated at 37° C. in an atmosphere of 95% air and 5% CO2 for 4 days. Cell viability was determined using the CellTiter-Glo® Luminescent Cell Viability Assay Kit (Promega, Madison, Wis.) according to the manufacture's instruction. Briefly, a volume of CellTiter-Glo® Reagent equal to the volume of cell culture medium was added to each well, and then the plates were incubated at room temperature for 10-20 minutes. The luminescent signal was measured using a Tecan Infinite M1000 multimode microplate reader (Tecan, Morrisville, N.C.). The half maximal inhibitory concentration (IC50) was calculated using the GraphPad Prism 5 software (GraphPad Software, La Jolla, Calif.). Cpd. A is a BET bromodomain inhibitor, see U.S. Appl. No. 62/121,637, having the following structure: Cell growth inhibitory activity of representative BET bromodomain degraders in representative leukemia cell lines, see Table 8, was determined as described in Example 17.
On the technique in general: ATP-based viability assays read luminescence as a measure of living cells.

In a further assay the test system is MDA-MB-231 xenograft. Put plainly: Efficacy of Cpd. No. 9 in MDA-MB-231 xenograft model. Format: in vivo, SCID mice. The note with it: MDA-MB-231 xenograft model in mice, i.v. (FIG. 7). As for the experimental part: Cpd. No. 9 was dissolved in 10% PCP [10% PEG400 (Sigma)+3% Cremophor (Sigma)+87% PBS (Gibco)]. The pH of the drug solutions were checked before use and adjusted with 0.5N NaOH to be between pH 6.5 and 8.0 for IV (intravenous) administration.
Human breast tumor cells, MDA-MB-231 (ATCC®) were maintained at 37° C., 95% air, 5% carbon dioxide in Improved MEM (Richter's Mod.) supplemented with 10% Fetal Bovine Serum, 100 units/ml of penicillin and […] (GIBCO™, Invitrogen Corp.) and passaged twice weekly.
Tumor cells for xenografts were harvested with Trypsin (0.05%)-EDTA (0.53 mM) (GIBCO™, Invitrogen Corp.), growth medium added and cells placed on ice. Cells were washed once with 1×PBS (GIBCO™, Invitrogen Corp.) and re-suspended in PBS. After washing in PBS, cells were re-suspended in an ice cold mixture of 1:1 PBS and Matrigel (BD Biosciences, Invitrogen Corp.) for a final Matrigel protein concentration of 5 mg/ml. Cells at 5×10^6 cells in 0.1 ml were injected subcutaneously (s.c.) into the flank region of each mouse using a 25 gauge needle. […]
The size of tumors growing in the mice was measured in two dimensions using calipers. […] During treatment, tumor volume and body weight were measured three times a week. After the treatment was stopped, tumor volume and body weight was measured at least once a week. […]

For orientation: IC50 means the midpoint of a concentration-inhibition curve.

`CCn1nc(C2CC2)cc1Nc1nc(C(=O)NCCCOCCOCCOCCCNc2cccc3c2C(=O)N(C2CCC(=O)NC2=O)C3=O)nc2[nH]c3cc(-c4c(C)noc4C)c(OC)cc3c12` (centres unmarked) [Cpd. No. 4]: the “time at which protein levels of BRD2, BRD4 and MCL1 started to rebound” value with BET proteins (WHIM24 tumors) amounted to 12 h. In addition, the “duration of the reduction of BET proteins in WHIM24 tumors” value in the assay with BET proteins is recorded as “at least 9 h”. In addition, in the assay with BET proteins (at as early as 1 h (data not shown)), the “reduction of the levels of BET proteins in WHIM24 tumors” value was over 80%. The same compound came in with an IC50 in the assay with K61 of 11.8 µM.

In the case of `CCn1nc(C2CC2)cc1Nc1nc(C(=O)NCCCCNc2cccc3c2C(=O)N(C2CCC(=O)NC2=O)C3=O)nc2[nH]c3cc(-c4c(C)noc4C)c(OC)cc3c12` (centres unmarked) [Cpd. No. 9], in the assay with MDA-MB-231 xenograft, the tumor growth result is “reduces tumor growth”.
